We go through 23 compounds from PubChem BioAssay (NCI).

Molecules are shown by their SMILES.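 A five-concentration, 48-hour dose response in 96-well plates underlies each endpoint, interpolated linearly between surrounding concentrations. TGI: total growth inhibition.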

The first assay concerns COLO 205 colon. Put plainly: inhibition of tumour cell growth, NCI panel, 48 h.
`C=CCON(C(=O)OC(C)(C)C)C(C)(C)C` displayed a TGI greater than 100 µM.

In another assay the test system is PC-3 prostate. Put plainly: inhibition of tumour cell growth, NCI panel, 48 h.
`C=CCC(CCC(C)=O)(C(=O)OCC)C(=O)OCC`: the TGI is greater than 100 µM.
The compound `COC(=O)[C@H](Cc1ccccc1)NC(=O)c1ccc(CNC(=O)/C=C/c2csc(-c3ccccc3)n2)cc1` had a TGI greater than 58.2 µM.
For the compound `N#Cc1ccccc1OCCOc1ccccc1C#N`, the TGI was greater than 100 µM.
In turn, `CCN(/C=C1/C(=O)C(c2ccccc2)N(c2ccccc2)C1=O)CC` (configuration not stated) gave a TGI greater than 10 µM.
Turning to `COc1ccc2nc3c(c(N)c2c1)C1CCC3C1(C)C` (configuration not stated), the TGI is greater than 100 µM.
`O=c1cc(Nc2cccc(O)c2)[nH]c(=O)[nH]1` returned a TGI greater than 100 µM.
With `O=C(Nn1c(-c2ccccc2)nc2ccccc2c1=O)c1ccc(Cl)cc1`, the TGI is greater than 100 µM.
Same read-out and setting: under `CC(=O)c1ccc(N=NN2CCCC2)cc1` stands greater than 100 µM; under `CSc1nncc(-c2cc3c(c(SC)n2)CCCC3)n1`, greater than 100 µM; under `Cc1nc2sc3cccc(Cl)c3n2c(=O)c1N=Nc1ccc(Cl)cc1`, greater than 100 µM.
For the compound `Cc1cc(N(CCC#N)CCC#N)ccc1/C(N=Nc1ccccc1)=N\NC(=O)c1cc(Cl)ccc1O`, the TGI was greater than 100 µM.
The compound `COC(=O)[C@@H]1CO[C@H](C(C)(C)C)N1C(=O)N1C=CC(=O)C[C@H]1C` gave a TGI greater than 100 µM.
For the compound `NCCOc1cccc(C2(N3CCCCC3)CCCCC2)c1`, the TGI was greater than 100 µM.
Same read-out and setting: under `Cc1ccc(N=N/C(=N/NC(=O)c2ccccc2)c2ccc(N(CCC#N)CCC#N)cc2C)cc1` stands greater than 100 µM; under `NC1=NC2(COC(c3ccccc3)(c3ccccc3)c3ccccc3)OC(COC(c3ccccc3)(c3ccccc3)c3ccccc3)C(O)C2O1` (configuration not stated), greater than 100 µM.
`CCCCCCCCCCCCCCCCCCNc1ccn(C2OC(COP(=O)(O)OCC3OC(n4ccc(N)nc4=O)C(O)C3O)C(O)C2O)c(=O)n1` (configuration not stated): the TGI is greater than 100 µM.
In turn, `Cc1ccc(S[C@@](C=O)(NC(=O)OCc2ccccc2)C(F)(F)F)cc1` yielded a TGI of 54.9 µM.
The compound `CCOc1cnc(C(O)(c2ccccc2)c2ccccc2)o1` returned a TGI greater than 100 µM.
As to `CC(=O)c1ccc(Nc2c3c(nc4ccccc24)CCCC3)cc1`, the TGI is greater than 100 µM.
Compound `O=C1CC(O)c2cscc21` (configuration not stated) returned a TGI greater than 100 µM.
The compound `CC(C)(C)OC(=O)N(CCCCNC(=O)C(F)(F)F)CCCNC(=O)C(F)(F)F` showed a TGI greater than 100 µM.
As to `C=C1CC[C@@H](CCC2CCC3(OC2)O[C@]2(O)CC[C@@]3(C)OC2(C)C)C(C)(C)[C@H]1C/C=C1\CCOC1=O` (some centres not stated), the TGI stood at 93.9 µM.
Regarding `C=CCON(C(=O)OC(C)(C)C)C(C)(C)C`, the TGI was greater than 100 µM.

For the next assay, the system named is NCI/ADR-RES ovarian. Put plainly: inhibition of tumour cell growth, NCI panel, 48 h.
`C=CCC(CCC(C)=O)(C(=O)OCC)C(=O)OCC` displayed a TGI greater than 100 µM.
Compound `COC(=O)[C@H](Cc1ccccc1)NC(=O)c1ccc(CNC(=O)/C=C/c2csc(-c3ccccc3)n2)cc1` showed a TGI greater than 91.7 µM.
`N#Cc1ccccc1OCCOc1ccccc1C#N` had a TGI greater than 100 µM.
Take `CCN(/C=C1/C(=O)C(c2ccccc2)N(c2ccccc2)C1=O)CC` (configuration not stated): the TGI is greater than 10 µM.
For the compound `COc1ccc2nc3c(c(N)c2c1)C1CCC3C1(C)C` (configuration not stated), the TGI was greater than 100 µM.
In turn, `O=c1cc(Nc2cccc(O)c2)[nH]c(=O)[nH]1` came in with a TGI greater than 100 µM.
`O=C(Nn1c(-c2ccccc2)nc2ccccc2c1=O)c1ccc(Cl)cc1`: the TGI is greater than 100 µM.
`CC(=O)c1ccc(N=NN2CCCC2)cc1` came in with a TGI greater than 100 µM.
The same measure, in the same setting: under `CSc1nncc(-c2cc3c(c(SC)n2)CCCC3)n1` stands greater than 100 µM; under `Cc1nc2sc3cccc(Cl)c3n2c(=O)c1N=Nc1ccc(Cl)cc1`, greater than 100 µM; under `Cc1cc(N(CCC#N)CCC#N)ccc1/C(N=Nc1ccccc1)=N\NC(=O)c1cc(Cl)ccc1O`, 72.7 µM.
In the case of `COC(=O)[C@@H]1CO[C@H](C(C)(C)C)N1C(=O)N1C=CC(=O)C[C@H]1C`, the TGI is greater than 100 µM.
As for `NCCOc1cccc(C2(N3CCCCC3)CCCCC2)c1`, the TGI was greater than 100 µM.
The compound `Cc1ccc(N=N/C(=N/NC(=O)c2ccccc2)c2ccc(N(CCC#N)CCC#N)cc2C)cc1` displayed a TGI greater than 100 µM.
`NC1=NC2(COC(c3ccccc3)(c3ccccc3)c3ccccc3)OC(COC(c3ccccc3)(c3ccccc3)c3ccccc3)C(O)C2O1` (configuration not stated): the TGI was greater than 100 µM.
Regarding `CCCCCCCCCCCCCCCCCCNc1ccn(C2OC(COP(=O)(O)OCC3OC(n4ccc(N)nc4=O)C(O)C3O)C(O)C2O)c(=O)n1` (configuration not stated), the TGI is greater than 100 µM.
Still for that read-out and setting: under `Cc1ccc(S[C@@](C=O)(NC(=O)OCc2ccccc2)C(F)(F)F)cc1` stands 51.8 µM; under `CCOc1cnc(C(O)(c2ccccc2)c2ccccc2)o1`, greater than 100 µM; under `CC(=O)c1ccc(Nc2c3c(nc4ccccc24)CCCC3)cc1`, 56.2 µM.
Consider `O=C1CC(O)c2cscc21` (configuration not stated), for which the TGI was greater than 100 µM.
Turning to `CC(C)(C)OC(=O)N(CCCCNC(=O)C(F)(F)F)CCCNC(=O)C(F)(F)F`, the TGI is greater than 100 µM.
As to `C=C1CC[C@@H](CCC2CCC3(OC2)O[C@]2(O)CC[C@@]3(C)OC2(C)C)C(C)(C)[C@H]1C/C=C1\CCOC1=O` (some centres not stated), the TGI was greater than 100 µM.
`C=CCON(C(=O)OC(C)(C)C)C(C)(C)C` returned a TGI greater than 100 µM.

Another assay relates to MALME-3M melanoma. Put plainly: inhibition of tumour cell growth, NCI panel, 48 h.
`C=CCC(CCC(C)=O)(C(=O)OCC)C(=O)OCC` yielded a TGI greater than 100 µM.
Turning to `COC(=O)[C@H](Cc1ccccc1)NC(=O)c1ccc(CNC(=O)/C=C/c2csc(-c3ccccc3)n2)cc1`, the TGI turned out to be 11.8 µM.
The same measure, in the same setting: under `N#Cc1ccccc1OCCOc1ccccc1C#N` stands greater than 100 µM; under `CCN(/C=C1/C(=O)C(c2ccccc2)N(c2ccccc2)C1=O)CC` (configuration not stated), greater than 10 µM.
With `COc1ccc2nc3c(c(N)c2c1)C1CCC3C1(C)C` (configuration not stated), the TGI was determined as 67.3 µM.
Compound `O=c1cc(Nc2cccc(O)c2)[nH]c(=O)[nH]1` gave a TGI greater than 100 µM.
`O=C(Nn1c(-c2ccccc2)nc2ccccc2c1=O)c1ccc(Cl)cc1` showed a TGI greater than 100 µM.
The compound `Cc1nc2sc3cccc(Cl)c3n2c(=O)c1N=Nc1ccc(Cl)cc1` came in with a TGI greater than 100 µM.
Still for that read-out and setting: under `Cc1cc(N(CCC#N)CCC#N)ccc1/C(N=Nc1ccccc1)=N\NC(=O)c1cc(Cl)ccc1O` stands 78.3 µM; under `COC(=O)[C@@H]1CO[C@H](C(C)(C)C)N1C(=O)N1C=CC(=O)C[C@H]1C`, greater than 100 µM.
The same measure, in the same setting: as for `NCCOc1cccc(C2(N3CCCCC3)CCCCC2)c1`, the figure is 35.1 µM; as for `Cc1ccc(N=N/C(=N/NC(=O)c2ccccc2)c2ccc(N(CCC#N)CCC#N)cc2C)cc1`, greater than 100 µM; as for `NC1=NC2(COC(c3ccccc3)(c3ccccc3)c3ccccc3)OC(COC(c3ccccc3)(c3ccccc3)c3ccccc3)C(O)C2O1` (configuration not stated), greater than 100 µM.
For the compound `CCCCCCCCCCCCCCCCCCNc1ccn(C2OC(COP(=O)(O)OCC3OC(n4ccc(N)nc4=O)C(O)C3O)C(O)C2O)c(=O)n1` (configuration not stated), the TGI is greater than 100 µM.
In turn, `Cc1ccc(S[C@@](C=O)(NC(=O)OCc2ccccc2)C(F)(F)F)cc1` came in with a TGI of 78.3 µM.
Same read-out and setting: under `CCOc1cnc(C(O)(c2ccccc2)c2ccccc2)o1` stands greater than 100 µM; under `O=C1CC(O)c2cscc21` (configuration not stated), greater than 100 µM.
Consider `C=C1CC[C@@H](CCC2CCC3(OC2)O[C@]2(O)CC[C@@]3(C)OC2(C)C)C(C)(C)[C@H]1C/C=C1\CCOC1=O` (some centres not stated), for which the TGI was found to be 55.2 µM.
`C=CCON(C(=O)OC(C)(C)C)C(C)(C)C` showed a TGI greater than 100 µM.

The test system of a further assay is HL-60(TB) leukemia. Put plainly: inhibition of tumour cell growth, NCI panel, 48 h.
`C=CCC(CCC(C)=O)(C(=O)OCC)C(=O)OCC` yielded a TGI greater than 100 µM.
